US20040028631A1, “Cosmetic formulations” (priority 2000, published 2004)
Read-outs that look alike come from different tables or passages of the source.

Tests used:
model proteins = assay: Protection of model proteins; format: biochemical; conditions: protecting model proteins
Protocol: Application related examinations were conducted with di-glycerol phosphate (DGP) aimed at protecting model proteins. As a penetration intensifier di-glycerol phosphate moreover ensures that these macro-molecules are also transported through several skin layers until they have reached their target destination.

[1] = Chemical, physical, pH and light stability; format: physicochemical
[2] = Optimum concentration (substance data tables; stabilizing effect)
From the text: With respect to the stabilizing effect of optically active DIP it is most important that the substance is present in the form of potassium salt.

Solubility in water = format: physicochemical
[3] = Biocompatibility / allergenic potential
Water binding capability = format: physicochemical
From the text: Moreover, the compound is thus of interest for the regulation and balancing of the skin's moisture characteristics. This is at least of additional advantage when the compound is used as a cosmetic agent.

proteins = assay: Protection against thermally induced denaturation of proteins; format: biochemical
From the text: Little is known at the present time about the effect of DIP in general. This mainly due to the fact that only very little of this compound is available.

SMILES | protective potential compared with glycerine (model proteins) | chemical and physical stability [1] | Optimum concentration [2] | solubility in water (Solubility in water) | biocompatibility [3] | capability of binding water (Water binding capability) | chemical and physical stability ([1]; listed as di-myo-inositol phosphate) | protective effect in respect of the thermally induced denaturation of proteins (proteins; first experiments) | protective effect in comparison with other compatible solutes (proteins; thermally induced denaturation of proteins)
O=P(O)(OCC(O)CO)OCC(O)CO (stereo not shown) [DGP, di-glycerol phosphate] | by far better protective potential | High | 100 to 200 mM | Excellent | High | highly capable of binding water |  |  | 
O=P(O)(O[C@@H]1[C@H](O)[C@H](O)[C@@H](O)[C@H](O)[C@H]1O)O[C@@H]1[C@@H](O)[C@H](O)[C@@H](O)[C@H](O)[C@@H]1O [DIP, di-myo-inositol phosphate] |  | High | 250 to 400 mM | Excellent |  | highly capable of binding water | great stability | excellent | far and decidedly better
